{"source": "patent US9751843B2", "about": "“Substituted uracils and use thereof” (Bayer Pharma Aktiengesellschaft, priority 2013, dated 2017)", "origin": "cited, not measured here", "system": "chymase", "key": {"[1]": {"details": "hamsters, myocardial infarction model"}}}
{"compound": "CCOc1ccccc1CC1C(=O)N(C(=O)NC(c2ccc(C)cc2)c2ccc(C)cc2)C1Oc1ccc(C(=O)O)cc1", "note": "(stereo not drawn) [BCEAB]", "values": [{"measurement": "chymase activity", "setting": "hamster, in vivo", "result": "reduced"}, {"measurement": "hemodynamics", "setting": "[1]", "result": "improved"}, {"measurement": "mortality", "setting": "[1]", "result": "reduced"}]}
